IC50 data for 17 molecules are collected here from patent US11976083B2, “Inhibitors of peptidylarginine deiminases” (Gilead Sciences, Inc., priority 2020, dated 2024).

As a reminder, the IC50 is the midpoint of a concentration-inhibition curve.

This experiment deals with T1, human PAD4 (Homo sapiens, UniProt Q9UM07).
T1 construct: human PAD4 (NM_012387), A2-P663, was PCR amplified; His-SUMO (N, cleaved yes); made in house; host or cells: E. coli BL21(DE3)
The experiment in a line: In vitro PAD4 BAEE biochemical assay. To be noted: BAEE substrate 3 mM, 5 nM PAD4, 2 mM calcium chloride; geometric mean of multiple experiments. Summed up:
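Recombinant human PAD4 (5 nM final) with 2 mM CaCl2 was preincubated with compound 30 min at 25 °C in MOPS buffer pH 7.6, then reacted with 3 mM BAEE for 2 h at 25 °C. After EDTA stop, released ammonia was detected by o-phthalaldehyde/DTT fluorescence (ex 405/em 535 nm); IC50 from four-parameter fit, geometric mean.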

T1 sequence (Q9UM07 2-663): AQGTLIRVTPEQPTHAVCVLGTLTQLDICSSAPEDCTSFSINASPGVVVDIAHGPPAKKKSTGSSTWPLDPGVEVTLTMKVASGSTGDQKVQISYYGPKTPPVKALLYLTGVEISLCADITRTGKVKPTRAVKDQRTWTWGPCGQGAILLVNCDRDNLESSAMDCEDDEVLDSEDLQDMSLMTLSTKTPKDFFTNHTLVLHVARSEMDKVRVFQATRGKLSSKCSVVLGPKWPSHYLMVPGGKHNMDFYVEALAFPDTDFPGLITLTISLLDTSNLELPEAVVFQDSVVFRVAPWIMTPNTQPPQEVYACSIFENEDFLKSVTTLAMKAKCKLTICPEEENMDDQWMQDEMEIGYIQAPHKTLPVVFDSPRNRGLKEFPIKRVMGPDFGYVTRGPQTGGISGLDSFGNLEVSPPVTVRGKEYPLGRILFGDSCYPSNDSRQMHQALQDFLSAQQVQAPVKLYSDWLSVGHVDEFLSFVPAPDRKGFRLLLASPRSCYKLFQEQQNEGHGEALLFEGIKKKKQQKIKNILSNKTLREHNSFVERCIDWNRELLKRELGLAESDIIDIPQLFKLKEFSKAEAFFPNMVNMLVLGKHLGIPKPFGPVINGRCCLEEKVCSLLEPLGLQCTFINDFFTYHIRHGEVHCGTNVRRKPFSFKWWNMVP

`C[C@H]1NC(=O)c2c(cccc2C(F)F)CCCCCn2c(-c3nc4cc(C(=O)N[C@H]5CNCC[C@@H]5F)c(F)cc4n3C)cc3ccc1nc32` [Example 384, 2-[(2~{R})-6-(difluoromethyl)-2-methyl-4-oxo-3,16,22-triazatetracyclo[14.5.2.0^{5,10}.0^{19,23}]tricosa-1(22),5(10),6,8,17,19(23),20-heptaen-17-yl]-6-fluoro-~{N}-[(3~{S},4~{S})-4-fluoro-3-piperidyl]-1-methyl-benzimidazole-5-carboxamide]: the IC50 is 62 nM.
The figure for `COc1cc(C(=O)N2CCC[C@@H](N)C2)cc2nc(-c3cc4ccc5nc4n3C[C@@H]3C[C@H]3C(OC)CCCC(=O)N[C@@H]5C)n(C)c12` (some centres unmarked) [Example 270, (3~{R},5~{R},12~{R})-18-[5-[(3~{R})-3-aminopiperidine-1-carbonyl]-7-methoxy-1-methyl-benzimidazol-2-yl]-6-methoxy-12-methyl-1,11,20-triazatetracyclo[11.5.2.0^{3,5}.0^{16,19}] icosa-13(20),14,16(19),17-tetraen-10-one] is 90 nM; for `COc1cc(C(=O)N2CCC[C@@H](N)C2)cc2nc(-c3cc4ccc5nc4n3C[C@@H]3C[C@@H]3COCCC(=O)N[C@@H]5C)n(C)c12` [Example 305, (3~{R},5~{S},12~{R})-18-[5-[(3~{R})-3-aminopiperidine-1-carbonyl]-7-methoxy-1-methyl-benzimidazol-2-yl]-12-methyl-7-oxa-1,11,20-triazatetracyclo[11.5.2.0^{3,5).0^{16,19}] icosa-13(20),14,16(19),17-tetraen-10-one] it is 65 nM; for `COc1cc(C(=O)N2[C@H]3CC[C@@H]2[C@H](N)C3)cc2nc(-c3cc4ccc5nc4n3CCCCCCCC(=O)N[C@H]5C(F)(F)F)n(C)c12` [Example 257, (11~{R})-17-[5-[(1~{R},2~{R},4~{S})-2-amino-7-azabicyclo[2.2.1]heptane-7-carbonyl]-7-methoxy-1-methyl-benzimidazol-2-yl]-11-(trifluoromethyl)-1,10,19-triazatricyclo[10.5.2.0^{15,18}]nonadeca-12(19),13,15(18),16-tetraen-9-one] it is 2470 nM.
For `COC[C@]12C[C@H]1CCCCCn1c(-c3nc4cc(C(=O)N5CC[C@@H](OC)[C@@H](N)C5)cc(OC)c4n3C)cc3ccc(nc31)[C@@H](C)NC2=O` [Example 864, (2~{R},5~{S),7~{R})-14-[5-[(3~{S},4~{R})-3-amino-4-methoxy-piperidine-1-carbonyl]-7-methoxy-1-methyl-benzimidazol-2-yl]-5-(methoxymethyl)-2-methyl-3,13,19-triazatetracyclo [11.5.2.0^{5,7}.0^{16,20}] icosa-1(19),14,16(20), 17-tetraen-4-one], the IC50 is 68 nM.
The figure for `COc1cc(C(=O)N2C[C@H](N)[C@@H]3CC[C@H]2C3)cc2nc(-c3cc4ccc5nc4n3C[C@H]3C[C@H]3CC[C@]3(F)C[C@H]3C(=O)N[C@@H]5C)n(C3CC3)c12` [Example 772, (3~{S},5~{R},8~{S},10~ {S},13~{R})-19-[5-[(1~{S},4~ {R},5~{R})-4-amino-2-azabicyclo[3.2.1]octane-2-carbonyl]-1-cyclopropyl-7-methoxy-benzimidazol-2-yl]-8-fluoro-13-methyl-1,12,21-triazapentacyclo[12.5.2.0^ {3,5).0^{8,10}.0^{17,20}] henicosa-14(21), 15,17(20),18-tetraen-11-one] is 6 nM; for `C[C@@H]1[C@H](N)CCCN1C(=O)c1cc(F)c2c(c1)nc(-c1cc3ccc4nc3n1CCCCCc1nc(Cl)ccc1C(=O)N[C@@H]4C)n2C` [Example 741, (2~{R})-17-[5-[(2~{R},3~{R})-3-amino-2-methyl-piperidine-1-carbonyl]-7-fluoro-1-methyl-benzimidazol-2-yl]-8-chloro-2-methyl-3,9,16,22-tetrazatetracyclo[14.5.2.0^ {5,10}.0^{19,23}]tricosa-1(22),5(10),6,8,17,19(23),20-heptaen-4-one] it is 33 nM.
Next, `CO[C@@H]1CCN(C(=O)c2cc(F)c3c(c2)nc(-c2cc4ccc5nc4n2CC(F)(F)/C=C/C[C@@H]2C[C@H]2C(=O)N[C@@H]5C)n3C2CC2)C[C@@H]1N` [Example 742, (2~{R},5~{R},7~{R},9~{E})-14-[5-[(3~{S},4~{R})-3-amino-4-methoxy-piperidine-1-carbonyl]-1-cyclopropyl-7-fluoro-benzimidazol-2-yl]-11,11-difluoro-2-methyl-3,13,19-triazatetracyclo[11.5.2.0^ {5,7}.0^{16,20}]icosa-1(19), 9,14,16(20),17-pentaen-4-one]: 58 nM; `COc1cc(C(=O)N[C@H]2CNCC[C@@H]2F)cc2nc(-c3cc4ccc5nc4n3CCCCC[C@@H]3C[C@H]3C(=O)N[C@@H]5C)n(C)c12` [Example 184, ~{N}-[(3~{S},4~{S})-4-fluoro-3-piperidyl]-7-methoxy-1-methyl-2-[(2~{R},5~{R},7~{R})-2-methyl-4-oxo-3,13,19-triazatetracyclo[11.5.2.0^{5,7}.0^{16,20}]icosa-1(19),14,16(20),17-tetraen-14-yl]benzimidazole-5-carboxamide]: 42 nM; `C[C@@H]1[C@H](N)CCCN1C(=O)c1cc(F)c2c(c1)nc(-c1cc3ccc4nc3n1CCCCC[C@]1(F)C[C@H]1C(=O)N[C@@H]4C)n2C1CC1` [Example 705, (2~{R},5~{S},7~{S})-14-[5-[(2~{R},3~{R})-3-amino-2-methyl-piperidine-1-carbonyl]-1-cyclopropyl-7-fluoro-benzimidazol-2-yl]-7-fluoro-2-methyl-3,13,19-triazatetracyclo[11.5.2.0^ {5,7}.0^{16,20}]icosa-1(19),14,16(20),17-tetraen-4-one]: 20 nM.
Take `COc1cc(C(=O)N2[C@H]3CC[C@@H]2[C@H](N)C3)cc2nc(-c3cc4ccc5nc4n3CCCCCC[C@@H](C)C(=O)N[C@@H]5C)c(C)n12` [Example 122, (8~{R},11~{R})-17-[7-[(1~{R},2~{R},4~{S})-2-amino-7-azabicyclo[2.2.1]heptane-7-carbonyl]-5-methoxy-3-methyl-imidazo[1,2-a]pyridin-2-yl]-8,11-dimethyl-1,10,19-triazatricyclo[10.5.2.0^{15,18}]nonadeca-12(19),13,15(18),16-tetraen-9-one]: the IC50 worked out at 16 nM.
The figure for `C[C@H]1NC(=O)c2ccc(Cl)nc2CCCCCn2c(-c3nc4cc(C(=O)N5C[C@H](N)[C@@H]6CC[C@H]5C6)cc(F)c4n3[C@H]3C[C@H]3F)cc3ccc1nc32` [Example 846, (2~{R})-17-[5-[(1~{S),4~{R}, 5~{R})-4-amino-2-azabicyclo [3.2.1]octane-2-carbonyl]-7-fluoro-1-[(1~{S},2~{R})-2-fluorocyclopropyl]benzimidazol-2-yl]-8-chloro-2-methyl-3,9,16,22-tetrazatetracyclo[14.5.2.0^ {5,10).0^{19,23}]tricosa-1(22),5(10),6,8,17,19(23),20-heptaen-4-one] is 27 nM; for `COc1cc(C(=O)N2CCC[C@@H](N)C2)cc2nc(-c3cc4ccc5nc4n3C[C@H]3C[C@H]3COCC3(CC3)C(=O)N[C@@H]5C)n(C)c12` [Example 311, (3~{S],5~{R},12~{R})-18-[5-[(3~{R})-3-aminopiperidine-1-carbonyl]-7-methoxy-1-methyl-benzimidazol-2-yl]-12-methyl-spiro[7-oxa-1,11,20-triazatetracyclo[11.5.2.0^{3,5}.0^{16,19}]icosa-13(20),14,16(19),17-tetraene-9,1′-cyclopropane]-10-one] it is 175 nM.
The figure for `COc1cc(C(=O)N2C[C@H](N)C[C@H](O)C2)cc2nc(-c3cc4ccc5nc4n3CCCCCCC(C)(C)C(=O)N[C@@H]5C)n(C)c12` [Example 536, (11~{R})-17-[5-[(3~{R},5~{S})-3-amino-5-hydroxy-piperidine-1-carbonyl]-7-methoxy-1-methyl-benzimidazol-2-yl]-8,8,11-trimethyl-1,10,19-triazatricyclo[10.5.2.0^ {15,18}]nonadeca-12(19), 13,15(18),16-tetraen-9-one] is 137 nM.
In the case of `COCCOCCn1c(-c2cc3ccc4nc3n2CCCCC[C@@H]2C[C@H]2C(=O)N[C@@H]4C)nc2cc(C(=O)N[C@H]3CNCC[C@@H]3F)c(F)cc21` [Example 427, 6-fluoro-~{N}-[(3~{S),4~{S})-4-fluoro-3-piperidyl]-1-[2-(2-methoxyethoxy)ethyl]-2-[(2~{R},5~{R},7~{R})-2-methyl-4-oxo-3,13,19-triazatetracyclo[11.5.2.0^{5,7}.0^{16,20}]icosa-1(19),14,16(20),17-tetraen-14-yl]benzimidazole-5-carboxamide], the IC50 stood at 54 nM.
Next, `C[C@H]1NC(=O)C2C[C@H]2CCCCCn2c(-c3nc4cc(C(=O)N5CCC[C@@H](N)C5)cc(Cl)c4n3C)cc3ccc1nc32` (some centres unmarked) [Example 506, (2~{R},7~{R})-14-[5-[(3~ {R})-3-aminopiperidine-1-carbonyl]-7-chloro-1-methyl-benzimidazol-2-yl]-2-methyl-3,13,19-triazatetracyclo[11.5.2.0^ {5,7}.0^{16,20}]icosa-1(19), 14,16(20),17-tetraen-4-one]: 39 nM; `COc1cc(C(=O)N2C[C@H]3CCCN[C@H]3C2)cc2nc(-c3cc4ccc5nc4n3CCCCCCC(C)(C)C(=O)N[C@@H]5C)n(C)c12` [Example 80, (11~{R})-17-[5-[(4~{a}~{R},7~{a}~{R})-1,2,3,4,4~{a},5,7,7~{a}-octahydropyrrolo[3,4-b]pyridine-6-carbonyl]-7-methoxy-1-methyl-benzimidazol-2-yl]-8,8,11-trimethyl-1,10,19-triazatricyclo[10.5.2.0^{15,18}]nonadeca-12(19),13,15(18),16-tetraen-9-one]: 255 nM.
